Data reported in ChEMBL document CHEMBL4321845, “Discovery and Characterization of Potent Pan-Genotypic HCV NS5A Inhibitors Containing Novel Tricyclic Central Core Leading to Clinical Candidate” (J Med Chem, 2019).

Assays:
[1] = molecular target: T1, Nonstructural protein 5A (Hepatitis C virus) (UniProt Q5L478); test: Inhibition of NS5A in HCV genotype 2a infected in human Huh7.5/J6/JFH1/EMCVIRES/hRlucNeo cells assessed as inhibition of replicon levels at 1 uM incubated for 72 hrs by luciferase reporter gene assay; conditions: Hepatitis C virus subtype 2a
T1 sequence (whole entry): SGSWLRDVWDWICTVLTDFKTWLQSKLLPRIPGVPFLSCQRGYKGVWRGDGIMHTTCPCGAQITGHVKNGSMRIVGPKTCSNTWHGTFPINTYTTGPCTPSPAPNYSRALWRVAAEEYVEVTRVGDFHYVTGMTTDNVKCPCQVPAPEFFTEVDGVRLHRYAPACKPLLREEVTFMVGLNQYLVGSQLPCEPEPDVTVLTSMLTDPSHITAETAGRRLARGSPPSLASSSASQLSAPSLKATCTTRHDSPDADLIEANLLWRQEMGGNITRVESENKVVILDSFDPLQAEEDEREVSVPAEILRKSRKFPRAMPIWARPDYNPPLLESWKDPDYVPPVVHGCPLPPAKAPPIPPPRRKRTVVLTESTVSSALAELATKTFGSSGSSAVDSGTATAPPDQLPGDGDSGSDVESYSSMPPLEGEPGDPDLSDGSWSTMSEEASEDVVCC

[2] = molecular target: T1, Nonstructural protein 5A (Hepatitis C virus); test: Inhibition of NS5A in HCV genotype 1b infected in human HuH7.5/Con1/SG-Neo(I)-hRluc2aUb cells assessed as inhibition of replicon levels at 1 uM incubated for 72 hrs by luciferase reporter gene assay relative to control; conditions: Hepatitis C virus subtype 1b
[3] = molecular target: T1, Nonstructural protein 5A (Hepatitis C virus); test: Inhibition of NS5A in HCV genotype 1b infected in human HuH7.5/Con1/SG-Neo(I)-hRluc2aUb cells assessed as inhibition of replicon levels at 0.1 uM incubated for 72 hrs by luciferase reporter gene assay relative to control; conditions: Hepatitis C virus subtype 1b
[4] = Oral bioavailability in rat at 10 mg/kg measured up to 24 hrs by LC-MS/MS analysis; assay type: ADME, organism-based; conditions: in vivo
[5] = Drug level in plasma of Wistar rat at 10 mg/kg, po measured at 4 hrs by LC-MS/MS analysis; assay type: ADME, organism-based
[6] = Half life in rat at 1 mg/kg, iv measured up to 24 hrs by LC-MS/MS analysis; assay type: ADME, organism-based; conditions: in vivo
[7] = Drug level in liver of Wistar rat at 10 mg/kg, po measured up to 8 hrs by LC-MS/MS analysis; assay type: ADME, organism-based; conditions: in vivo
[8] = AUC (last) in rat at 10 mg/kg, po measured up to 24 hrs by LC-MS/MS analysis; assay type: ADME, organism-based; design: dose 10 mg/kg, time 0 - last, route oral; conditions: in vivo
[9] = Cytotoxicity in human HepG2 cells assessed as inhibition of cell growth at 10 uM incubated for 72 hrs by CCK8 assay relative to control; assay type: cell-based; conditions: read-out: GI
[10] = Protein binding in human plasma; assay type: ADME, cell-free; conditions: read-out: PPB
[11] = Drug metabolism in rat liver microsomes assessed as metabolic rate at 1 uM preincubated for 5 mins before NADPH addition and measured up to 30 mins by LC-MS/MS analysis; assay type: ADME, Microsome; conditions: 0.5 h
[12] = Drug level in liver of Wistar rat at 10 mg/kg, po measured at 4 hrs by LC-MS/MS analysis; assay type: ADME, organism-based; conditions: read-out: Drug uptake
[13] = Cytotoxicity in human HEK293 cells assessed as inhibition of cell growth at 3 uM incubated for 72 hrs by CCK8 assay relative to control; assay type: cell-based; conditions: read-out: GI
[14] = AUC(last) in rat at 1 mg/kg, iv measured up to 24 hrs by LC-MS/MS analysis; assay type: ADME, organism-based; design: dose 1 mg/kg, route intravenous, time 0 - last; conditions: in vivo
[15] = Ratio of dug level in liver to plasma of Wistar rat at 10 mg/kg, po measured at 4 hrs by LC-MS/MS analysis; assay type: ADME, organism-based
CYP3A4 = CYP3A4 (Homo sapiens, UniProt P08684); test: Inhibition of CYP3A4 in pooled human liver microsomes at 10 uM pre-incubated for 5 mins before NADPH addition and measured after 10 mins by UPLC-MS/MS analysis relative to control; assay type: ADME
CYP3A4, sequence (P08684 whole entry): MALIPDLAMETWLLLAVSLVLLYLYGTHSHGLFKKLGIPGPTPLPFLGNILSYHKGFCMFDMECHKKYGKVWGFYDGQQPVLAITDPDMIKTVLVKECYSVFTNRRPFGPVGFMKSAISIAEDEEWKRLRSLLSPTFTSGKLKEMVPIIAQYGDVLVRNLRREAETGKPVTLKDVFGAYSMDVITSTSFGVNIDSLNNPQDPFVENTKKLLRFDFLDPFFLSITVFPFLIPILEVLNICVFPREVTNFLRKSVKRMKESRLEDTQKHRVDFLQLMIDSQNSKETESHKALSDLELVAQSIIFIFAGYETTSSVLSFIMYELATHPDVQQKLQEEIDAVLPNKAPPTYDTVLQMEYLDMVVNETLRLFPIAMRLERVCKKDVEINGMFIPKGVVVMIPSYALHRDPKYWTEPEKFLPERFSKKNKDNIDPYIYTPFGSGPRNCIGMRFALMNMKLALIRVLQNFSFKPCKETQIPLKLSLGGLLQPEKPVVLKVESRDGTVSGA

[16] = Volume of distribution at steady state in rat at 1 mg/kg, iv measured up to 24 hrs by LC-MS/MS analysis; assay type: ADME, organism-based; conditions: in vivo, read-out: Vdss
[17] = Cytotoxicity in human HepG2 cells assessed as inhibition of cell growth at 3 uM incubated for 72 hrs by CCK8 assay relative to control; assay type: cell-based; conditions: read-out: GI
[18] = Cytotoxicity in human HEK293 cells assessed as inhibition of cell growth at 10 uM incubated for 72 hrs by CCK8 assay relative to control; assay type: cell-based; conditions: read-out: GI
CYP2C9 = CYP2C9 (Homo sapiens, UniProt P11712); test: Inhibition of CYP2C9 in pooled human liver microsomes at 10 uM pre-incubated for 5 mins before NADPH addition and measured after 10 mins by UPLC-MS/MS analysis relative to control; assay type: ADME
CYP2C9, sequence (P11712 whole entry): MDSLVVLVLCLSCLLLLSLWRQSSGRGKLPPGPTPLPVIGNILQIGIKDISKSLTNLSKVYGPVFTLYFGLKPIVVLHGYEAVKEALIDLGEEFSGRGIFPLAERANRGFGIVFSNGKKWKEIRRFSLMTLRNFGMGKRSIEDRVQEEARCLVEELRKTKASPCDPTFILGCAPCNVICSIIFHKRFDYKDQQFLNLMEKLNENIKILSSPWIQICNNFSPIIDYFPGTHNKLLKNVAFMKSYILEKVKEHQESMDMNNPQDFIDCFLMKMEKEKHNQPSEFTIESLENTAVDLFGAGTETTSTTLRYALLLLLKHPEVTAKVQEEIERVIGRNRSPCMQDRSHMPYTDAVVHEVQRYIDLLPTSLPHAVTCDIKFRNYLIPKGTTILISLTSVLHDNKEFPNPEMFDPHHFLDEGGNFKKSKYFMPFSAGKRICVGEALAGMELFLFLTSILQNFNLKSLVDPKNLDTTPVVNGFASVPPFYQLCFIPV

[19] = Cytotoxicity in human HuH7 cells assessed as inhibition of cell growth at 3 uM incubated for 72 hrs by CCK8 assay relative to control; assay type: cell-based, Huh-7; conditions: read-out: GI
CYP2D6 = CYP2D6 (Homo sapiens, UniProt P10635); test: Inhibition of CYP2D6 in pooled human liver microsomes at 10 uM pre-incubated for 5 mins before NADPH addition and measured after 10 mins by UPLC-MS/MS analysis relative to control; assay type: ADME
CYP2D6, sequence (P10635 whole entry): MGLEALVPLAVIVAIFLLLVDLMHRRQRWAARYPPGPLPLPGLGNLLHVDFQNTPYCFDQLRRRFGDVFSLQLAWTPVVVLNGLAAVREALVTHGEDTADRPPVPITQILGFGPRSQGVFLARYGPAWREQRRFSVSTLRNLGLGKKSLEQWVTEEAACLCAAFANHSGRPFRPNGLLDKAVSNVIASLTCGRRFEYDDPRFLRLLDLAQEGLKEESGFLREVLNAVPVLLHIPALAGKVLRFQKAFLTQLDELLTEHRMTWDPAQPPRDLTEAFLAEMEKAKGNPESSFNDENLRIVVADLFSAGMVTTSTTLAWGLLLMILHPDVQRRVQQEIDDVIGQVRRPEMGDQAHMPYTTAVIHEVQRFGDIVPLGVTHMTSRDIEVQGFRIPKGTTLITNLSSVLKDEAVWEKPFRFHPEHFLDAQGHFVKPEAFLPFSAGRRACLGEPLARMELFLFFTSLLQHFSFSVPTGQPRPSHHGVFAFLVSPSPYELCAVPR

[20] = Protein binding in rat plasma; assay type: ADME, cell-free; conditions: read-out: PPB
[21] = Cmax in rat at 10 mg/kg, po measured up to 24 hrs by LC-MS/MS analysis; assay type: ADME, organism-based; design: dose 10 mg/kg, route oral; conditions: in vivo
[22] = Clearance in rat at 1 mg/kg, iv measured up to 24 hrs by LC-MS/MS analysis; assay type: ADME, organism-based; conditions: in vivo
[23] = Drug metabolism in human liver microsomes assessed as metabolic rate at 1 uM preincubated for 5 mins before NADPH addition and measured up to 30 mins by LC-MS/MS analysis; assay type: ADME, Microsome; conditions: 0.5 h

COC(=O)N[C@H](C(=O)N1CCC[C@H]1c1ncc(-c2cc3c(cc2OC)C2(CC3(C)C)CC(C)(C)c3cc(-c4cnc([C@@H]5CCCN5C(=O)[C@@H](NC(=O)OC)C(C)C)[nH]4)c(OC)cc32)[nH]1)C(C)C
inhibition [1]: 13% | inhibition [2]: 79%

COC(=O)N[C@H](C(=O)N1CCC[C@H]1c1ncc(-c2ccc3c(c2)CC2c4ccc(-c5cnc([C@@H]6CCCN6C(=O)[C@@H](NC(=O)OC)C(C)C)[nH]5)cc4CC32)[nH]1)C(C)C (some centres not stated)
inhibition [1]: 11% | inhibition [3]: 75%

COC(=O)N[C@H](C(=O)N1CCC[C@H]1c1nc(Cl)c(-c2ccc3c(c2)OCC(C)(C)COc2cc(-c4[nH]c([C@@H]5CCCN5C(=O)[C@@H](NC(=O)OC)C(C)C)nc4Cl)ccc2-3)[nH]1)C(C)C
bioavailability [4]: 56% | concentration at 4 h [5]: 640 nM | half-life [6]: 3.8 h | Drug uptake [7]: Active | AUC(0-t) at 24 h [8]: 2.4 µM·h | inhibition at 72 h, 10 µM [9]: 27% | fraction unbound [10]: < 0.01 | Drug metabolism [11]: 0 nmol/min/mg | concentration at 4 h [12]: 7100 nM | inhibition at 72 h, 3 µM [13]: 44% | AUC(0-t) at 24 h [14]: 0.43 µM·h | Kp at 4 h [15]: 11 | inhibition at 10 min, 10 µM (CYP3A4): 6% | Vd [16]: 10 L/kg | inhibition at 72 h, 3 µM [17]: 23% | inhibition at 72 h, 10 µM [18]: 63% | inhibition at 10 min, 10 µM (CYP2C9): 29% | inhibition at 72 h, 3 µM [19]: 25% | inhibition at 10 min, 10 µM (CYP2D6): 6% | fraction unbound [20]: < 0.01 | Cmax [21]: 500 nM | clearance [22]: 37 mL/min/kg | Drug metabolism [23]: 0 nmol/min/mg
